According to patent publication US10597388B2, “Pyridazinone herbicides” (FMC CORPORATION, priority 2014, dated 2020):

Key:
Test in all cases: Test C greenhouse herbicide test, pre- and postemergence
Format in all cases: in vivo
[1] = system: blackgrass (Alopecurus myosuroides)
Procedure, shortened: (§1)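 Preemergence: seeds sown in a loam soil–sand blend and sprayed with test chemicals in a non-phytotoxic solvent mixture containing surfactant. Postemergence: plants grown in peat-based medium and treated at 2 to 18 cm (1- to 4-leaf stage). After 13 to 15 d in a greenhouse, injury was visually rated 0–100 against controls.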

[2] = system: galium (catchweed bedstraw, Galium aparine)
Procedure, shortened: as §1

[3] = system: pigweed (Amaranthus retroflexus)
Procedure, shortened: as §1

[4] = system: waterhemp (common waterhemp, Amaranthus rudis)
Procedure, shortened: as §1

corn (Zea mays) = system: corn (Zea mays)
Procedure, shortened: as §1

[5] = system: foxtail, giant (giant foxtail, Setaria faberii)
Procedure, shortened: as §1

[6] = system: morningglory (Ipomoea coccinea)
Procedure, shortened: as §1

[7] = system: ragweed (common ragweed, Ambrosia elatior)
Procedure, shortened: as §1

[8] = system: johnsongrass (Sorghum halepense)
Procedure, shortened: as §1

[9] = system: barnyardgrass (Echinochloa crus-galli)
Procedure, shortened: as §1

[10] = system: ryegrass, Italian (Italian ryegrass, Lolium multiflorum)
Procedure, shortened: as §1

[11] = system: lambsquarters (Chenopodium album)
Procedure, shortened: as §1

[12] = system: wheat (winter wheat, Triticum aestivum)
Procedure, shortened: as §1

[13] = system: nutsedge, yellow (yellow nutsedge, Cyperus esculentus)
Procedure, shortened: as §1

[14] = system: velvetleaf (Abutilon theophrasti)
Procedure, shortened: as §1

soybean (Glycine max) = system: soybean (Glycine max)
Procedure, shortened: as §1

[15] = Postemergence, 31 g ai/ha, 0 to 100 scale (0 no effect, 100 complete control)
[16] = Postemergence, 125 g ai/ha, scale 0 to 100, 0 is no effect, 100 is complete control
[17] = Postemergence, 250 g ai/ha, scale 0 to 100, 0 no effect, 100 complete control, 13 to 15 d
[18] = Preemergence, 31 g ai/ha, scale 0 to 100, 0 is no effect, 100 is complete control
[19] = Preemergence, 62 g ai/ha, scale 0 to 100, 0 is no effect, 100 is complete control
[20] = Preemergence, 125 g ai/ha, scale 0 to 100, 0 is no effect, 100 is complete control
[21] = Preemergence, 250 g ai/ha, scale 0 to 100 (0 no effect, 100 complete control)
[22] = postemergence, 62 g ai/ha, scale 0 to 100, 0 no effect, 100 complete control

## Cc1cc(C)c2sc(C)c(-c3c(OC(=O)OCCCl)c(C)nn(C)c3=O)c2c1 [Compound 85]
[1]; [15]
  Blackgrass plant response rating: 70
[1]; [16]
  Plant response rating, Blackgrass: 90
[1]; [17]
  Plant response rating, Blackgrass: 90
[1]; [18]
  Plant response rating, Blackgrass: 50
[1]; [19]
  Plant response rating, Blackgrass: 85
[1]; [20]
  Plant response rating, Blackgrass: 90
[1]; [21]
  Blackgrass plant response rating: 90
[1]; [22]
  Blackgrass plant response rating: 80
[2]; [16]
  Plant response rating, Galium: 100
[2]; [17]
  Plant response rating, Galium: 100
[2]; [18]
  Plant response rating, Galium: 90
[2]; [19]
  Plant response rating, Galium: 90
[2]; [20]
  Plant response rating, Galium: 95
[2]; [21]
  Galium plant response rating: 95
[2]; [22]
  Galium plant response rating: 100
[3]; [16]
  Plant response rating, Pigweed: 85
[3]; [17]
  Plant response rating, Pigweed: 90
[3]; [18]
  Plant response rating, Pigweed: 100
[3]; [19]
  Plant response rating, Pigweed: 100
[3]; [20]
  Plant response rating, Pigweed: 100
[3]; [21]
  Pigweed plant response rating: 100
[3]; [22]
  Pigweed plant response rating: 85
[4]; [16]
  Plant response rating, Waterhemp: 85
[4]; [17]
  Plant response rating, Waterhemp: 85
[4]; [18]
  Plant response rating, Waterhemp: 60
[4]; [19]
  Plant response rating, Waterhemp: 80
[4]; [20]
  Plant response rating, Waterhemp: 90
[4]; [21]
  Waterhemp plant response rating: 100
[4]; [22]
  Waterhemp plant response rating: 65
Corn (Zea mays); [15]
  Corn plant response rating: 0
Corn (Zea mays); [16]
  Plant response rating, Corn: 0
Corn (Zea mays); [17]
  Plant response rating, Corn: 5
Corn (Zea mays); [18]
  Plant response rating, Corn: 0
Corn (Zea mays); [19]
  Plant response rating, Corn: 10
Corn (Zea mays); [20]
  Plant response rating, Corn: 0
Corn (Zea mays); [21]
  Corn plant response rating: 10
Corn (Zea mays); [22]
  Corn plant response rating: 0
[5]; [16]
  Plant response rating, Foxtail, Giant: 90
[5]; [17]
  Plant response rating, Foxtail, Giant: 90
[5]; [18]
  Plant response rating, Foxtail, Giant: 90
[5]; [19]
  Plant response rating, Foxtail, Giant: 98
[5]; [20]
  Plant response rating, Foxtail, Giant: 100
[5]; [21]
  Foxtail, Giant plant response rating: 100
[5]; [22]
  Foxtail, Giant plant response rating: 85
[6]; [16]
  Plant response rating, Morningglory: 100
[6]; [17]
  Plant response rating, Morningglory: 100
[6]; [18]
  Plant response rating, Morningglory: 85
[6]; [19]
  Plant response rating, Morningglory: 90
[6]; [20]
  Plant response rating, Morningglory: 95
[6]; [21]
  Morningglory plant response rating: 98
[6]; [22]
  Morningglory plant response rating: 98
[7]; [16]
  Plant response rating, Ragweed: 85
[7]; [17]
  Plant response rating, Ragweed: 90
[7]; [18]
  Plant response rating, Ragweed: 80
[7]; [19]
  Plant response rating, Ragweed: 90
[7]; [20]
  Plant response rating, Ragweed: 98
[7]; [21]
  Ragweed plant response rating: 98
[7]; [22]
  Ragweed plant response rating: 85
[8]; [16]
  Plant response rating, Johnsongrass: 50
[8]; [17]
  Plant response rating, Johnsongrass: 25
[8]; [18]
  Plant response rating, Johnsongrass: 40
[8]; [19]
  Plant response rating, Johnsongrass: 30
[8]; [20]
  Plant response rating, Johnsongrass: 65
[8]; [21]
  Johnsongrass plant response rating: 40
[8]; [22]
  Johnsongrass plant response rating: 15
[9]; [15]
  Barnyardgrass plant response rating: 25
[9]; [16]
  Plant response rating, Barnyardgrass: 40
[9]; [17]
  Plant response rating, Barnyardgrass: 50
[9]; [18]
  Plant response rating, Barnyardgrass: 35
[9]; [19]
  Plant response rating, Barnyardgrass: 60
[9]; [20]
  Plant response rating, Barnyardgrass: 80
[9]; [21]
  Barnyardgrass plant response rating: 90
[9]; [22]
  Barnyardgrass plant response rating: 45
[10]; [16]
  Plant response rating, Ryegrass, Italian: 90
[10]; [17]
  Plant response rating, Ryegrass, Italian: 95
[10]; [18]
  Plant response rating, Ryegrass, Italian: 85
[10]; [19]
  Plant response rating, Ryegrass, Italian: 85
[10]; [20]
  Plant response rating, Ryegrass, Italian: 90
[10]; [21]
  Ryegrass, Italian plant response rating: 90
[10]; [22]
  Ryegrass, Italian plant response rating: 90
[11]; [16]
  Plant response rating, Lambsquarters: 100
[11]; [17]
  Plant response rating, Lambsquarters: 100
[11]; [18]
  Plant response rating, Lambsquarters: 85
[11]; [19]
  Plant response rating, Lambsquarters: 90
[11]; [20]
  Plant response rating, Lambsquarters: 90
[11]; [21]
  Lambsquarters plant response rating: 100
[11]; [22]
  Lambsquarters plant response rating: 98
[12]; [16]
  Plant response rating, Wheat: 0
[12]; [17]
  Plant response rating, Wheat: 0
[12]; [18]
  Plant response rating, Wheat: 0
[12]; [19]
  Plant response rating, Wheat: 0
[12]; [20]
  Plant response rating, Wheat: 0
[12]; [21]
  Wheat plant response rating: 5
[12]; [22]
  Wheat plant response rating: 0
[13]; [16]
  Plant response rating, Nutsedge, Yellow: 95
[13]; [17]
  Plant response rating, Nutsedge, Yellow: 90
[13]; [18]
  Plant response rating, Nutsedge, Yellow: 70
[13]; [19]
  Plant response rating, Nutsedge, Yellow: 85
[13]; [20]
  Plant response rating, Nutsedge, Yellow: 75
[13]; [21]
  Nutsedge, Yellow plant response rating: 80
[13]; [22]
  Nutsedge, Yellow plant response rating: 85
[14]; [16]
  Plant response rating, Velvetleaf: 85
[14]; [17]
  Plant response rating, Velvetleaf: 95
[14]; [18]
  Plant response rating, Velvetleaf: 50
[14]; [19]
  Plant response rating, Velvetleaf: 80
[14]; [20]
  Plant response rating, Velvetleaf: 85
[14]; [21]
  Velvetleaf plant response rating: 90
[14]; [22]
  Velvetleaf plant response rating: 85
Soybean (Glycine max); [16]
  Plant response rating, Soybean: 0
Soybean (Glycine max); [17]
  Plant response rating, Soybean: 15
Soybean (Glycine max); [18]
  Plant response rating, Soybean: 0
Soybean (Glycine max); [19]
  Plant response rating, Soybean: 0
Soybean (Glycine max); [20]
  Plant response rating, Soybean: 0
Soybean (Glycine max); [21]
  Soybean plant response rating: 0
Soybean (Glycine max); [22]
  Soybean plant response rating: 0
